Data taken from US20030144317A1, “Novel benzoylecgonine compositions and methods for producing them” (priority 2001, published 2003).

Experiments:
[1] = Stability testing (absence of water) of the composition produced in Example 3; details: for relative amount of component at end of reaction (start of the stability trial): composition of Example 3 (no water added; H2O content 0.12 w/w), b61 reads the values as % of the composition
[2] = Stability testing (initial 5% w/w water) of the composition produced in Example 4; details: for relative amount of component at end of reaction (start of the stability trial): composition of Example 4 (initial 5% w/w water; H2O content 4.76 w/w), b61 reads the values as % of the composition
[3] = composition of Example 3 (absence of water), 25° C., 13 days
[4] = composition of Example 3 (absence of water), 40° C., 13 days
[5] = composition of Example 4 (initial 5% w/w water), 25° C., 13 days
[6] = composition of Example 4 (initial 5% w/w water), 40° C., 13 days

| SMILES | relative amount of component, stability at 25° C. after 13 days [1, 3] | relative amount of component, stability at 40° C. after 13 days [1, 4] | relative amount of component at end of reaction (start of the stability trial) ([1]; day 15 of reaction at 60° C.) | relative amount of component, stability at 25° C. after 13 days [2, 5] | relative amount of component, stability at 40° C. after 13 days [2, 6] | relative amount of component at end of reaction (start of the stability trial) ([2]; day 16 of reaction at 50° C.) | BME % (w/w), stability at 25° C. after 13 days [1, 3] | BME % (w/w), stability at 40° C. after 13 days [1, 4] | BME % (w/w) at end of reaction (start of the stability trial) ([1]; composition of Example 3 (absence of water), day 15 of reaction at 60° C.) | BME % (w/w), stability at 25° C. after 13 days [2, 5] | BME % (w/w), stability at 40° C. after 13 days [2, 6] | BME % (w/w) at end of reaction (start of the stability trial) ([2]; composition of Example 4 (initial 5% w/w water), day 16 of reaction at 50° C.) |
| --- | --- | --- | --- | --- | --- | --- | --- | --- | --- | --- | --- | --- |
| O=C(O)c1ccccc1 [BA, benzoic acid] | 27.35 | 28.75 | 26.05 | 9.17 | 9.68 | 8.99 | – | – | – | – | – | – |
| CN1[C@H]2CC[C@@H]1[C@@H](C(=O)O)[C@@H](OC(=O)c1ccccc1)C2 [BEc, benzoylecgonine] | 3.99 | 4.28 | 4.097 | 64.02 | 66.31 | 63.8 | – | – | – | – | – | – |
| COC(=O)[C@H]1[C@@H](OC(=O)c2ccccc2)C[C@@H]2CC[C@H]1N2C [BME, 3-benzoyloxy-2-carbomethyoxy-8-methyl-8-azabicyclo[3.2.1]octane] | 1.19 | 0.90 | 1.76 | 0.84 | 0.46 | 0.95 | 0.08 % (w/w) | 0.06 % (w/w) | 0.13 % (w/w) | 0.07 % (w/w) | 0.04 % (w/w) | 0.08 % (w/w) |
| COC(=O)C1=CC[C@@H]2CC[C@H]1N2C [Methyl Ecd] | 1.33 | 1.26 | 1.42 | 0.86 | 0.80 | 1.00 | – | – | – | – | – | – |
